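Values below derive from 48-hour exposures of cells grown in 96-well plates, with endpoints linearly interpolated between the two concentrations bracketing the appropriate inhibition level. At the GI50, growth is halved.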 The source made the active and inactive calls. Cut-off read from the data, not from the text of the source: active = GI50 up to about 1.1 µM and inactive = higher.
Experiments:
Experiment in all cases: NCI-60 cell line screen, 48 h
DLD-1 = system: DLD-1
DMS-114 = system: DMS-114
DMS-273 = system: DMS-273
KM-20L2 = system: KM-20L2
LXFL 529 = system: LXFL 529
RXF 631 = system: RXF 631
SNB-78 = system: SNB-78
HOP-18 = system: HOP-18
XF498 = system: XF498

Row | Structure (SMILES) | GI50 (DLD-1) | GI50 (DMS-114) | GI50 (DMS-273) | GI50 (KM-20L2) | GI50 (LXFL 529) | GI50 (RXF 631) | GI50 (SNB-78) | GI50 (HOP-18) | GI50 (XF498)
1 | CCCCCCC(=O)OC[n+]1ccc2c(C)c3[nH]c4ccccc4c3c(C)c2c1 | 0.4 µM (active) | 1.08 µM (active) | 0.106 µM (active) | 0.582 µM (active) | 0.785 µM (active) | 2.54 µM (inactive) | 1.09 µM (active) |  | 
2 | CCOC(=O)CC1=Nc2ccccc2SC1 | > 100 µM (inactive) | > 100 µM (inactive) | > 100 µM (inactive) | > 100 µM (inactive) | > 100 µM (inactive) | > 100 µM (inactive) | > 100 µM (inactive) | > 100 µM (inactive) | > 100 µM (inactive)
3 | CCSc1nnc(CSc2nc(-c3ccccc3)c(-c3ccccc3)[nH]2)n1-c1ccccc1 | 20.2 µM (inactive) | 19 µM (inactive) | 23.4 µM (inactive) | 17.9 µM (inactive) | 27.4 µM (inactive) | 19.6 µM (inactive) | 41.1 µM (inactive) | 13.8 µM (inactive) | 20.3 µM (inactive)
4 | O=C(Cc1csc(-c2nc(CC(=O)NNc3ccccc3)cs2)n1)NNc1ccccc1 | 49 µM (inactive) | 25.6 µM (inactive) | 12.8 µM (inactive) | > 100 µM (inactive) | 91.2 µM (inactive) | > 10 µM (inactive) | > 100 µM (inactive) | > 100 µM (inactive) | > 100 µM (inactive)
5 | C/C(CCn1[nH]c(=O)ccc1=O)=N\O | > 100 µM (inactive) | > 100 µM (inactive) | > 100 µM (inactive) | > 100 µM (inactive) | > 100 µM (inactive) | > 100 µM (inactive) | > 100 µM (inactive) | > 100 µM (inactive) | > 100 µM (inactive)
6 | COc1c(C)cc2c(c1O)C1C3[C@H]4SC[C@@]5(NCCC6=C5NC5C=CC=CC65)C(=O)OCC(c5c6c(c(C)c(OC(C)=O)c54)OCO6)N3[C@@H](O)C(C2)N1C (some centres undefined) | < 0.01 µM (active) | < 0.01 µM (active) | < 0.01 µM (active) | < 0.01 µM (active) | < 0.01 µM (active) |  |  |  | < 0.01 µM (active)
7 | COc1cccc2cc(C)c(C(=O)c3ccccc3)nc12 | > 100 µM (inactive) | > 100 µM (inactive) | > 100 µM (inactive) | > 100 µM (inactive) | > 100 µM (inactive) | > 100 µM (inactive) | > 100 µM (inactive) | > 100 µM (inactive) | > 100 µM (inactive)
8 | Cc1cc(C)nc(NS(=O)(=O)c2ccc(Nc3c4ccccc4nc4c(C(=O)NCCN(C)C)ccc(Cl)c34)cc2)n1 | 3.03 µM (inactive) | 1.01 µM (active) |  | 2.08 µM (inactive) | 1.11 µM (active) |  | 8.3 µM (inactive) |  | 5.13 µM (inactive)
9 | COCC1C(=O)c2cc3c(cc2C12C=CC1(C=C2)OCCO1)OCO3 (centres undefined) | 2.22 µM (inactive) | 2.99 µM (inactive) | 11.1 µM (inactive) | 10.6 µM (inactive) | 2.49 µM (inactive) | 4.59 µM (inactive) |  |  | 5.38 µM (inactive)
10 | C[C@@H](NC1CCC[C@@H]1O)c1ccccc1 (some centres undefined) | > 100 µM (inactive) | > 100 µM (inactive) | > 100 µM (inactive) | > 100 µM (inactive) | > 100 µM (inactive) |  | > 100 µM (inactive) | > 100 µM (inactive) | > 100 µM (inactive)
11 | NC1=NS(=O)(=O)Nc2nc(-c3ccc([N+](=O)[O-])cc3)[nH]c21 | > 100 µM (inactive) | > 100 µM (inactive) | > 100 µM (inactive) |  | > 100 µM (inactive) |  |  | > 100 µM (inactive) | 
12 | O=C(/C(=C\c1ccc(Cl)cc1)c1ccccc1)c1ccccc1 | 93.5 µM (inactive) | 21.4 µM (inactive) |  |  | 55.5 µM (inactive) |  | > 100 µM (inactive) | > 100 µM (inactive) | 37.6 µM (inactive)
13 | N/N=c1/nc2n(c3ncccc13)C=CNN2 | > 100 µM (inactive) | > 100 µM (inactive) | > 100 µM (inactive) | > 100 µM (inactive) | > 100 µM (inactive) | > 100 µM (inactive) |  |  | > 100 µM (inactive)
14 | O=C(NO)C12C3C4C1C1C2C3C41C(=O)NO (centres undefined) | > 100 µM (inactive) | > 100 µM (inactive) | > 100 µM (inactive) | > 100 µM (inactive) | 37.2 µM (inactive) |  | > 100 µM (inactive) | > 100 µM (inactive) | 

From ChEMBL document CHEMBL1201862, “PubChem BioAssay data set” (2004)
